The subject of data set [1] is HIV-1IIIB. It counts as cell-based.
In data set [2] the test system is HIV-1BaL. It counts as cell-based.
Data set [3] can be described thus: Cytotoxicity, XTT assay. To be noted: human, MT-2 cells, 4 days at 37°C, triplicate, mean ± SD. It counts as cell-based. Background: Tetrazolium assays rely on reduction of a dye to a coloured formazan, in cell work by metabolically active cells.
Data set [4] has as its system 92TH009 (A/E, R5). Briefly: Infection by primary HIV-1 isolate, p24 ELISA. The data set is classed as cell-based. As to conditions: CEMx174 5.25M7 cells, 100 TCID50, p24 ELISA day 7; triplicate, mean ± SD; read-out: EC50 for inhibiting 92TH009 (A/E, R5). As for the experimental part:
(§1) HIV-1 infection assay. To measure the inhibitory activity of the peptides on infection of R5 primary HIV-1 isolates, US4/GS 007 (subtype B), 93IN101 (subtype C), and 92TH009 (subtype A/E), 50 µl of an inhibitor at graded concentration in triplicate was incubated with the same volume of a primary HIV-1 isolate at 100 TCIID50 at 37 °C for 30 min, followed by addition of 100 µl of CEMx174 5.25M7 cells (5×10^5/ml). After incubation at 37 °C overnight, the culture medium was replaced with fresh medium without inhibitor. On day 7 postinfection, the culture supernatants were collected for measuring p24 by ELISA, and the percent inhibition and EC50 values were calculated using Calcusyn
Background: ELISA stands for enzyme-linked immunosorbent assay.

Data set [5] concerns US4/GS 007 (B, R5). Briefly: Infection by primary HIV-1 isolate, p24 ELISA. It counts as cell-based. To be noted: CEMx174 5.25M7 cells, 100 TCID50, p24 ELISA day 7; triplicate, mean ± SD; read-out: EC50 for inhibiting US4/GS 007 (B, R5). Here is the method:
as §1

Data set [6] concerns 93IN101 (C, R5). The data set is classed as cell-based, HIV-1. As for the experimental part: as §1
In data set [7] the test system is HIV-1 NL4-3(D36G). Briefly: Activity against T20-sensitive strain. The data set is classed as cell-based. To be noted: triplicate, mean ± SD, read-out: EC50, NL4-3 mutant D36G.
A short description of data set [8]: CD spectroscopy and CD thermal denaturation. To be noted: 10 μM peptide in PBS pH 7.4. It counts as physicochemical. The source says: software as described above. 2
Circular dichroism (CD) spectroscopy.

Data set [9] is described as follows: Sedimentation velocity analysis (SVA). It counts as physicochemical. Further details: Sedimentation coefficient: unit not given here. To be noted: 120 μM in PBS pH 7.4, 60,000 rpm, 20 °C. As for the experimental part: Sedimentation velocity analysis (SVA). All measurements were performed on a ProteomelabTMXL-A/XL-I analytical ultracentrifuge (Beckman Coulter, Fullerton, CA, USA) at 20 °C, as described previously. In brief, three-channel cells were used with an An-60 Tirotor. Lyophilized N-peptides were resuspended in ddH2O (pH 7.0) at ~1 mg/mL. The individual proteins and their mixtures with an equimolar amount of C34 peptide were prepared in PBS and incubated at 37 °C for 30 min. All samples were prepared at a final concentration of 120 μM and were initially scanned at 3000 rpm for 10 min to identify the appropriate wavelength for data collection. Data were collected at 60,000 rpm at a wavelength […]
of 280 nm. […]

Data set [10] has as its target proteinase K (Parengyodontium album, UniProt P06873). As to the kind of experiment: Metabolic stability in proteinase K solution. The data set is classed as in vitro ADME. As to conditions: 10 μg/mL, LC-MS/MS, compared with T20. Here is the method:
(§2) Tricine-sodium dodecyl sulfate-polyacrylamide gel electrophoresis (Tricine-SDS-PAGE). Polyacrylamide gels (12%) and a BayGene Mini Cell were used for Tricine-SDS-PAGE. The cathode buffer consisted of 0.1 M Tricine, 0.1 M Tris, and 1% SDS, and the anode buffer was 0.2 M Tris. After incubation at 37 °C for 0–24 h, the samples were mixed with Tris-SDS-glycine sample buffer (Invitrogen, Carlsbad, CA) at a ratio of 1:1 and then loaded onto the gels (20 μL/well). Gel electrophoresis was first carried out at a constant voltage of 60 V at room temperature for 1 h and then carried out at a constant voltage of 120 V at room temperature for 2 h. The gel was then stained with Bio-Rad Bio-Safe […]
(§3) Binding assays by size-exclusion chromatography. C34 was mixed with N-peptides (final concentration = 0.20 mM) at a molar ratio of 1:1 in PBS (pH 7.4) and incubated at 37 °C for 30 min. The peptide or peptide mixture (20 μL) was applied to a Phenomenex BioSep-SEC-s2000, 300 mm × 7.80 mm HPLC column equilibrated with PBS (pH 7.4) and eluted at 0.6 mL/min, and the fractions were monitored at 210 nm. Column pressure was 3.5 Mpa.
(§4) Qualification assay. Chromatographic analyses were performed using an ODS-C8 column (5 μm, 100 mm × 2.0mm ID) kept at ambient temperature. The mobile phase was composed of acetonitrile-water-formic acid in the ratio of 60:40:0.1 (v/v/v) at a flow rate of 0.3 mL/min. […]

Data set [11] can be described thus: Metabolic stability in liver homogenate. It counts as in vitro ADME. To be noted: SD rat, pooled from 3 rats, 4 mL Tris–HCl 50 mM pH 7.4 per g, 9,000 g supernatant, 10 μg/mL, 37°C, 0-120 min, LC-MS/MS, compared with T20.
A short description of data set [12]: Metabolic stability in kidney homogenate. The data set is classed as in vitro ADME. To be noted: SD rat, pooled from 3 rats, 4 mL Tris–HCl 50 mM pH 7.4 per g, 9,000 g supernatant, 10 μg/mL, 37°C, 0-120 min, LC-MS/MS, compared with T20.
Data set [13] is described as follows: Metabolic stability in rat plasma. It counts as in vitro ADME. As to conditions: 10 μg/mL, LC-MS/MS, compared with T20. As for the experimental part:
as §2, §3, §4

Data set [14] relates to HIV-1 Env-mediated cell–cell fusion. As to conditions: read-out: EC50 for inhibiting cell–cell fusion; HL2/3 and TZM-bl cells coincubated 6–8 h, 37°C, luciferase; triplicate, mean ± SD.
Method: Cell-cell fusion assay. Cell-cell fusion assays were performed as described previously.1 HL2/3 cells, which stably
express HIV Gag, Env, Tat, Rev, and Nef proteins, as well as TZM-bl cells, which stably express large amounts of CD4
and CCR5, were obtained from the NIH AIDS Reference and Reagent Program (contributed by Drs. Barbara Felber and
George Pavlakis and Drs. John C. Kappes and Xiaoyun Wu, respectively). TZM-bl cells (2.5 × 10^4/well) and HL2/3 cells
(7.5 × 10^4/well) were coincubated in 96-well plates (Corning Costar) at 37°C in 5% CO2 in the presence of different
concentrations of inhibitors. After incubation for 6–8 h, the medium was aspirated, the cells were washed and lysed, and
luciferase activity was measured using the Luciferase Assay System (Promega, Madison, WI) on a SpectraMax M5 plate
reader (Molecular Devices, Sunnyvale, CA).
The test system of data set [15] is HIV-1 NL4-3 (36G)V38A. As to conditions: read-out: EC50, NL4-3 mutant (36G)V38A; T20-resistant strain; triplicate, mean ± SD.
The test system of data set [16] is HIV-1 NL4-3 (36G)V38E/N42S. To be noted: read-out: EC50, NL4-3 mutant (36G)V38E/N42S; T20-resistant strain; triplicate, mean ± SD.
Data set [17] has as its system HIV-1 NL4-3 (36G)V38A/N42T. To be noted: read-out: EC50, NL4-3 mutant (36G)V38A/N42T; T20-resistant strain; triplicate, mean ± SD.
Where [18] appears, read: triplicate, mean ± SD, read-out: EC50 for inhibiting HIV-1IIIB infection.
The mark [19] stands for this setting: triplicate, mean ± SD, read-out: EC50 for inhibiting HIV-1BaL infection.
Setting [20] is: CEMx174 5.25M7 cells, 100 TCID50, p24 ELISA day 7, triplicate, mean ± SD, read-out: EC50 for inhibiting 93IN101 (C, R5).

Like-named read-outs stand apart in the source and are kept apart here. Positions of bridges follow the written chain, without caps; N, C: chain ends. Chains are numbered I, II in the order given.

The values that follow come from PMC5968561, “An effective strategy for recapitulating N-terminal heptad repeat trimers in enveloped virus surface glycoproteins for therapeutic applications” (Chemical Science, 2015).

Sequence of proteinase K (P06873 106-384): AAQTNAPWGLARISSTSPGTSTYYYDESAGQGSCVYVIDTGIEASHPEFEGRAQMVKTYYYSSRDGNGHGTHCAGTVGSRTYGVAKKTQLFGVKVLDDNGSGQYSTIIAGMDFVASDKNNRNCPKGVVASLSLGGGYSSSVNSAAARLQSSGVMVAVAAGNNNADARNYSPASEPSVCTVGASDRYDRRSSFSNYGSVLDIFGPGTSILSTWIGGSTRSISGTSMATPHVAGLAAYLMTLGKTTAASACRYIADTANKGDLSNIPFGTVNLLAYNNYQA

One may read the CC50 as the concentration that lowers cell viability or growth by half. “I: Ac-SGIVQKINNIERAIEAQQHLLQLTVWGIKQLQARIL-NH2 / II: Ac-SGIVQKINNIERAIEAQQHLLQLTVWGIKQLQARIL-NH2 / III: Ac-SGIVQKINNIERAIEAQQHLLQLTVWGIKQLQARIL-NH2 (amide I:6-III:11, I:11-II:6, II:11-III:6) [(N36M)3]”: the EC50 in data set [1] (setting [18]) came out at 2.67 ± 0.1 nM; in [2] (setting [19]), 8.6 ± 3.1 nM; in data set [4], 1.5 ± 0.1 nM; in data set [5], 9.4 ± 1.2 nM; in [6] (setting [20]), 5.9 ± 2 nM; in data set [7], 20.2 ± 2.7 nM. Besides, the EC50 in data set [14] came out at 4 ± 0.4 nM; in data set [15], 14.5 ± 1.5 nM; in [16], 6 ± 3.7 nM; in data set [17], 10.2 ± 1.3 nM. The same substance displayed a CC50 at 96 h in data set [3] above 50000 nM. The “Tm (thermal unfolding transition)” value in data set [8] (CD at 222 nm, 15 to 90 °C at 2 °C/min) was above 90 °C. For the same substance, in [8] (CD, mean residue ellipticity at 222 nm), the Helicity came to 82%. In addition, the Sedimentation coefficient in [9] (280 nm, SEDFIT) was determined as 1.39. The “Observed molecular mass (SVA)” value in data set [9] (oligomeric state) came to 12.5 kDa. Further, in data set [10], the “Metabolic stability in proteinase K solution” value is listed as “dramatically increased in vitro metabolic stability over T20”. Besides, the “Metabolic stability in liver homogenate” value in [11] was “dramatically increased in vitro metabolic stability over T20”. In data set [12], the “Metabolic stability in kidney homogenate” value is “dramatically increased in vitro metabolic stability over T20”. Also, in data set [13], the “Metabolic stability in rat plasma” value is reported as “dramatically increased in vitro metabolic stability over T20”.
“I: Ac-SEIVKKINNIERAIEAQQHLLQLTVWGIKQLQARIL-NH2 / II: Ac-SEIVKKINNIERAIEAQQHLLQLTVWGIKQLQARIL-NH2 / III: Ac-SEIVKKINNIERAIEAQQHLLQLTVWGIKQLQARIL-NH2 (amide I:6-III:11, I:11-II:6, II:11-III:6) [(N36MEK1)3]”: the EC50 was 11.2 ± 4.9 nM in data set [1] (setting [18]); 74.3 ± 6.5 nM in data set [2] (setting [19]); 14.5 ± 4.1 nM in data set [4]; 29.2 ± 11.2 nM in [5]; 20.1 ± 5.6 nM in [6] (setting [20]); 106 ± 16 nM in data set [7]. The EC50 in data set [14] amounted to 59 ± 8.7 nM; in data set [15], 126 ± 31 nM; in data set [16], 22.2 ± 2.8 nM; in [17], 71 ± 6.1 nM. The substance also had a cytotoxic concentration (CC50) at 96 h in data set [3] of 17300 ± 1600 nM.
As to Enfuvirtide, the EC50 in [1] is 57.8 ± 3.2 nM; in data set [2], 34.1 ± 9.4 nM; in [4], 19 ± 0.5 nM; in data set [5], 20.4 ± 2.9 nM; in [6], 22.1 ± 0.9 nM; in data set [14] it was 1.2 ± 0.01 nM. Moreover, the EC50 in data set [15] was 620 ± 103 nM; in data set [16], above 2000 nM; in data set [17], 539 ± 33 nM.
In the case of “I: Ac-SEIVKKINNIERAIEAQQKLLQLTVWGIKQLQARIL-NH2 / II: Ac-SEIVKKINNIERAIEAQQKLLQLTVWGIKQLQARIL-NH2 / III: Ac-SEIVKKINNIERAIEAQQKLLQLTVWGIKQLQARIL-NH2 (amide I:6-III:11, I:11-II:6, II:11-III:6) [(N36MEK2)3]”, the EC50 in [1] (setting [18]) was 4.7 ± 0.6 nM; in [2] (setting [19]) it was 20.4 ± 2.5 nM; in data set [4], 1.5 ± 0.6 nM; in [5], 7.1 ± 2.5 nM; in data set [6] (setting [20]), 5.2 ± 0.9 nM; in data set [7], 19.4 ± 1.9 nM. Besides, the EC50 in [14] was determined as 27.1 ± 2.5 nM; in data set [15], 21.7 ± 2.3 nM; in data set [16] it was 4.9 ± 2.9 nM; in [17], 8.1 ± 1.2 nM. Moreover, in data set [3], the CC50 at 96 h is 18900 ± 2600 nM.
